According to ChEMBL document CHEMBL5678818, “Discovery of potent SOS1 inhibitors that block RAS activation via disruption of the RAS-SOS1 interaction” (Proc Natl Acad Sci U S A, 2019):

What was measured:
[1] = target: T1, Serine/threonine-protein kinase Sgk1 (Homo sapiens) (UniProt O00141); assay: Inhibition of SGK (unknown origin) assessed as residual activity at 1000 nM by KINOMEscan analysis relative to control
T1 sequence (whole entry): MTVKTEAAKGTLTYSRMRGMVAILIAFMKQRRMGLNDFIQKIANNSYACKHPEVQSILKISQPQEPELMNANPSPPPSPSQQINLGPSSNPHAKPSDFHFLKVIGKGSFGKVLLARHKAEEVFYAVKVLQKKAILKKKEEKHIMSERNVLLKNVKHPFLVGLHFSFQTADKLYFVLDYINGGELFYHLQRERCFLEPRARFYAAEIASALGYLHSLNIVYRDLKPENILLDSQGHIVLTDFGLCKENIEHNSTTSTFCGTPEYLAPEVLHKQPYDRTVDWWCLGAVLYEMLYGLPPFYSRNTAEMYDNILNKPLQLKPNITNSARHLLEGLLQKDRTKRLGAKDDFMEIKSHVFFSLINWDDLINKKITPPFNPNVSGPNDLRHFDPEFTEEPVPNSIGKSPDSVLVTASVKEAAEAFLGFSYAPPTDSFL

[2] = tested on: Serine/threonine-protein kinase B-raf (Homo sapiens), P15056 [V600E]; assay: Inhibition of BRAF V600E mutant (unknown origin) assessed as residual activity at 1000 nM by KINOMEscan analysis relative to control
[3] = tested on: Phosphatidylinositol 4,5-bisphosphate 3-kinase catalytic subunit alpha isoform (Homo sapiens), P42336 [H1047Y]; assay: Inhibition of PIK3CA H1047Y mutant (unknown origin) assessed as residual activity at 1000 nM by KINOMEscan analysis relative to control
[4] = target: T2, Serine/threonine-protein kinase ULK2 (Homo sapiens) (UniProt Q8IYT8); assay: Inhibition of ULK2 (unknown origin) assessed as residual activity at 1000 nM by KINOMEscan analysis relative to control
T2 sequence (whole entry): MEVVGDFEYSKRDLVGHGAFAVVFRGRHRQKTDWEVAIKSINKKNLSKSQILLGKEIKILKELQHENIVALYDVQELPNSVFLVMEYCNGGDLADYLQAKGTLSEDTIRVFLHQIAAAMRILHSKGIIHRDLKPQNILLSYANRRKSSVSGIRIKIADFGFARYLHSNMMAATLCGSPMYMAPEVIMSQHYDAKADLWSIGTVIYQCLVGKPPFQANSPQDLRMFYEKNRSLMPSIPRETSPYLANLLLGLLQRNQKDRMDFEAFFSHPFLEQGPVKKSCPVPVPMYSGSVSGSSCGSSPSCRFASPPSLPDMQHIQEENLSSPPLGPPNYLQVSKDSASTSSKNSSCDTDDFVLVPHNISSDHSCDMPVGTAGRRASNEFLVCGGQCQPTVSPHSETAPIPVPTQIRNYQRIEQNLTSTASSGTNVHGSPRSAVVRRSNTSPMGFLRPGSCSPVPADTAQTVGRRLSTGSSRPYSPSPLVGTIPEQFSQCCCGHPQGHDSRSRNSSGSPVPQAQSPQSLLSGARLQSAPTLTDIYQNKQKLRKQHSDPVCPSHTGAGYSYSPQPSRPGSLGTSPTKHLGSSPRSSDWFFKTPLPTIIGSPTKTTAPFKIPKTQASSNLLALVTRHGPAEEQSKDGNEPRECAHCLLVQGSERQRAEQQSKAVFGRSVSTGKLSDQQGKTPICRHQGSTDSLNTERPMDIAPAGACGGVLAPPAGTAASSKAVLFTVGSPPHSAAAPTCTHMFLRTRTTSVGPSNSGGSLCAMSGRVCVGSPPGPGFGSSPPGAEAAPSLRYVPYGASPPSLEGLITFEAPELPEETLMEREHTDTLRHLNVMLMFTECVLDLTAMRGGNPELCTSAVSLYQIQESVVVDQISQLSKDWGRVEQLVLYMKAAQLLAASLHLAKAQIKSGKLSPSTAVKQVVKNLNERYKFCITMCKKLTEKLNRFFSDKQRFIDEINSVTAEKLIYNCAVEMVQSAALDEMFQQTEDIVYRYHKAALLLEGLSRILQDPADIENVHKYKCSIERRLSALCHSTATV

[5] = target: T3, Activin receptor type-1B (Homo sapiens) (UniProt P36896); assay: Inhibition of ACVR1B (unknown origin) assessed as residual activity at 1000 nM by KINOMEscan analysis relative to control
T3 sequence (whole entry): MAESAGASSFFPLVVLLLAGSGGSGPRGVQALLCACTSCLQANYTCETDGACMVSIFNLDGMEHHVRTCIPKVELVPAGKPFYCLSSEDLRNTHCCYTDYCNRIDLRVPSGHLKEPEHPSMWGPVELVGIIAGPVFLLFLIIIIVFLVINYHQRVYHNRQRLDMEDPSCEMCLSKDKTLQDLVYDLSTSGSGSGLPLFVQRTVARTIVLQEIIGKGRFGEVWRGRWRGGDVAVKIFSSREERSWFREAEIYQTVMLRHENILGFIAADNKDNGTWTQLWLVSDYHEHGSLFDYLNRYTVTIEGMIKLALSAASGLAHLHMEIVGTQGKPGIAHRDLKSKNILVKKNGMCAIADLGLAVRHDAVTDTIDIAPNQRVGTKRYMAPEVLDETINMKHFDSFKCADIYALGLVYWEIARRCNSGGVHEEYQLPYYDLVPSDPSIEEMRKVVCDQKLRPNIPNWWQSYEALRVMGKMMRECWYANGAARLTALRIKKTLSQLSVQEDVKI

[6] = tested on: Epidermal growth factor receptor (Homo sapiens), P00533 [G719S]; assay: Inhibition of EGFR G719S mutant (unknown origin) assessed as residual activity at 1000 nM by KINOMEscan analysis relative to control
[7] = tested on: Receptor-type tyrosine-protein kinase FLT3 (Homo sapiens), P36888 [D835Y]; assay: Inhibition of FLT3 D835Y mutant (unknown origin) assessed as residual activity at 1000 nM by KINOMEscan analysis relative to control
[8] = tested on: Mast/stem cell growth factor receptor Kit (Homo sapiens), P10721 [L576P]; assay: Inhibition of KIT L576P mutant (unknown origin) assessed as residual activity at 1000 nM by KINOMEscan analysis relative to control
[9] = target: Mitogen-activated protein kinase kinase kinase 4 (Homo sapiens) (UniProt Q9Y6R4); assay: Inhibition of MAP3K4 (unknown origin) assessed as residual activity at 1000 nM by KINOMEscan analysis relative to control
[10] = target: Serine/threonine-protein kinase 26 (Homo sapiens) (UniProt Q9P289); assay: Inhibition of MST4 (unknown origin) assessed as residual activity at 1000 nM by KINOMEscan analysis relative to control
[11] = target: Myosin-IIIa (Homo sapiens) (UniProt Q8NEV4); assay: Inhibition of MYO3A (unknown origin) assessed as residual activity at 1000 nM by KINOMEscan analysis relative to control
[12] = target: Casein kinase I isoform gamma-1 (Homo sapiens) (UniProt Q9HCP0); assay: Inhibition of CSNK1G1 (unknown origin) assessed as residual activity at 1000 nM by KINOMEscan analysis relative to control

Myosin-IIIa (Homo sapiens), sequence (Q8NEV4 whole entry, canonical isoform): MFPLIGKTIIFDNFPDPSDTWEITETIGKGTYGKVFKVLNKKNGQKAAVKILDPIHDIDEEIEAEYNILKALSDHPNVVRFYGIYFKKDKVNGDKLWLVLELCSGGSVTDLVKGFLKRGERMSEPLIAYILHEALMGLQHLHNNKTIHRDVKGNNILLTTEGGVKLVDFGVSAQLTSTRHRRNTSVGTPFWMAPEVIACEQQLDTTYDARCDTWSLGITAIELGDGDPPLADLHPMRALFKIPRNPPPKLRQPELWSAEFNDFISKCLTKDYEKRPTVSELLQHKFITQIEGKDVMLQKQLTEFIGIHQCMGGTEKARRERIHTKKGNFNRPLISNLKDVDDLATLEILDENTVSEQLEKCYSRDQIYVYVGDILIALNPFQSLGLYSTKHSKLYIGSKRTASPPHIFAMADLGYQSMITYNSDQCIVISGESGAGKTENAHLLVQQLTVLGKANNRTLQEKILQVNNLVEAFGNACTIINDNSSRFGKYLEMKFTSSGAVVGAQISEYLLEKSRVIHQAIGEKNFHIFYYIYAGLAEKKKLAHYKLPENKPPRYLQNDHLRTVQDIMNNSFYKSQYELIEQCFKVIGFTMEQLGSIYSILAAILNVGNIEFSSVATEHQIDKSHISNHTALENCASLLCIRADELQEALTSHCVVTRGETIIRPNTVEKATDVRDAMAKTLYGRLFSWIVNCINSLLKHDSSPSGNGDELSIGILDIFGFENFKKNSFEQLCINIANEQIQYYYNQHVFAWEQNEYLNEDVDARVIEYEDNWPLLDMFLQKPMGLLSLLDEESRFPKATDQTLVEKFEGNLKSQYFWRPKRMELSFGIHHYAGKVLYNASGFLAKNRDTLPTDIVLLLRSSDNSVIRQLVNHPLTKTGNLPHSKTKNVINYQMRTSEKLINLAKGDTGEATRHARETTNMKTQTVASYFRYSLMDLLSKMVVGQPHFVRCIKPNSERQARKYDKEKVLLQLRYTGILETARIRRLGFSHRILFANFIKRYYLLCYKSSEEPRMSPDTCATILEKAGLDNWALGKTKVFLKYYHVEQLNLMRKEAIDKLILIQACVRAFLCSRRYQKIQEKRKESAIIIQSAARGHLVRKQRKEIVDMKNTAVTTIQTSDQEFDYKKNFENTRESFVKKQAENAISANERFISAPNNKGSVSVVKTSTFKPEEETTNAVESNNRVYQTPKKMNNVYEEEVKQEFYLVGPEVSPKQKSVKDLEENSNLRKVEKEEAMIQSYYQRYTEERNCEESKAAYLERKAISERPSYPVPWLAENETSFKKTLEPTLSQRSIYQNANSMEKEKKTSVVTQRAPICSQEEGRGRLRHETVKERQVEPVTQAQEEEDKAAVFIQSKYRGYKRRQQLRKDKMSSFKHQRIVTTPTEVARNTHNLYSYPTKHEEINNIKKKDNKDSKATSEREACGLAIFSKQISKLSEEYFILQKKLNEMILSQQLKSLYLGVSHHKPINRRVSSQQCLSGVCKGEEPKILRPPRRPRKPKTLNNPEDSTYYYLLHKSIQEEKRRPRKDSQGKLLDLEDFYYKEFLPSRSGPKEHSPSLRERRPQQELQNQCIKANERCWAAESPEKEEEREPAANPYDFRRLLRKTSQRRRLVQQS
Mitogen-activated protein kinase kinase kinase 4 (Homo sapiens), sequence (Q9Y6R4 whole entry): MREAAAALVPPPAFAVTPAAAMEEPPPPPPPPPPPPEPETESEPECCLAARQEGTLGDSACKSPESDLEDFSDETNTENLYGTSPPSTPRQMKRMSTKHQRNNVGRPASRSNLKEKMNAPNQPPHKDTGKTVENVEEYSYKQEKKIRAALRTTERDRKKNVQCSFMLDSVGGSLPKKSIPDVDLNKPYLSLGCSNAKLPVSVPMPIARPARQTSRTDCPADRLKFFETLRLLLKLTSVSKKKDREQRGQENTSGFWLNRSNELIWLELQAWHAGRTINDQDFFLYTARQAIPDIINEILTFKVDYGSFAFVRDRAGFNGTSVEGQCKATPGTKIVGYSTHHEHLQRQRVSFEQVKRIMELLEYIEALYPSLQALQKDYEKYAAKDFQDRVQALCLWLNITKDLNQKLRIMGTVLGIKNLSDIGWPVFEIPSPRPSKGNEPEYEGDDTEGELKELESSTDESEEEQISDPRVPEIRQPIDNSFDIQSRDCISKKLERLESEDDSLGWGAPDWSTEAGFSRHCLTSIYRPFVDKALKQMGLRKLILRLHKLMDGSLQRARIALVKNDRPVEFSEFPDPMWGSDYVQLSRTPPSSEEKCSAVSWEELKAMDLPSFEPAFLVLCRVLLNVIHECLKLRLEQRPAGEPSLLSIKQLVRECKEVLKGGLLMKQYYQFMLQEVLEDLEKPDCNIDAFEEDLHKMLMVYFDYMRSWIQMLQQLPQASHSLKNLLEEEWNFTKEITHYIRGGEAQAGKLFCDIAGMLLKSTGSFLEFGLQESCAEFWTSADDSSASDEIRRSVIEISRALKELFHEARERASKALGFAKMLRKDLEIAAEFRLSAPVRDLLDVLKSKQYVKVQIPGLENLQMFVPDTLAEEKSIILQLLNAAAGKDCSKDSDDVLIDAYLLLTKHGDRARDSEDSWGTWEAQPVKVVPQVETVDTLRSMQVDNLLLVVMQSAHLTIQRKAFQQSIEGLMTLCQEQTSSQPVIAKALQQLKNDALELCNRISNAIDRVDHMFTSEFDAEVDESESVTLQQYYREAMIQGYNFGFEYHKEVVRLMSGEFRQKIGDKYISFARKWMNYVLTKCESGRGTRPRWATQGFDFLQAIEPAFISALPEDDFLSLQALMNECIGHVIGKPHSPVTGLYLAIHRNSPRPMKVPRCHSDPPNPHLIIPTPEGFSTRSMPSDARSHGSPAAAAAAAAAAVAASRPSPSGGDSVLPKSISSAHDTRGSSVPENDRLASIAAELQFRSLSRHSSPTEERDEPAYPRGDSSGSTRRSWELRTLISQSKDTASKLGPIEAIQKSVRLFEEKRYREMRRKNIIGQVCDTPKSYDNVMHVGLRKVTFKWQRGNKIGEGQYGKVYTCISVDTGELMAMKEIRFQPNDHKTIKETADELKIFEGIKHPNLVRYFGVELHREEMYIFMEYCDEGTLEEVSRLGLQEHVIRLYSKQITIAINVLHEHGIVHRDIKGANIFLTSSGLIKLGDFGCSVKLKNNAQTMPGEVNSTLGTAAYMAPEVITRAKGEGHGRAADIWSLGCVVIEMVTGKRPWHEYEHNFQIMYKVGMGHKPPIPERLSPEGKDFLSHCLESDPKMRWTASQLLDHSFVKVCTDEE
Serine/threonine-protein kinase B-raf (Homo sapiens), P15056 [V600E], sequence (P15056 whole entry V600E, canonical isoform): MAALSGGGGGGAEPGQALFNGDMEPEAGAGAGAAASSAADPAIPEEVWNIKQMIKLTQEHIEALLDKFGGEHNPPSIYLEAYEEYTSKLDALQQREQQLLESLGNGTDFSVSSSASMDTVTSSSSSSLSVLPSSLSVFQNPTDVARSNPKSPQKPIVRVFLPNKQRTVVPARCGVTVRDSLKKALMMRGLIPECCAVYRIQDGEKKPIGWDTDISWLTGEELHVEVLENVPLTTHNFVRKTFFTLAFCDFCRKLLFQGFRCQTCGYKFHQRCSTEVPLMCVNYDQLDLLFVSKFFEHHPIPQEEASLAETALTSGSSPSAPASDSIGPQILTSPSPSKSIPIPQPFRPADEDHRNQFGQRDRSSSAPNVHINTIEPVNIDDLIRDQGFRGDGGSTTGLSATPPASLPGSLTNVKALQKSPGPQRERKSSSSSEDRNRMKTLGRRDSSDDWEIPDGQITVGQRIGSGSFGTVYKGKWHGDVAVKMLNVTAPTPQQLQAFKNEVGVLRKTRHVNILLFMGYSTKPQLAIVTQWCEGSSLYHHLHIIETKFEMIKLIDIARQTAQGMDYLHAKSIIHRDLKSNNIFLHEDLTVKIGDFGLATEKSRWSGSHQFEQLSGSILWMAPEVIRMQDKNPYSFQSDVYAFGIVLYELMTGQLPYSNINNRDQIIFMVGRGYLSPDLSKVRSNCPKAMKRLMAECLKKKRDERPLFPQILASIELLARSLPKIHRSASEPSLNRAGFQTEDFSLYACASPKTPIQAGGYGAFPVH
Phosphatidylinositol 4,5-bisphosphate 3-kinase catalytic subunit alpha isoform (Homo sapiens), P42336 [H1047Y], sequence (P42336 whole entry H1047Y, canonical isoform): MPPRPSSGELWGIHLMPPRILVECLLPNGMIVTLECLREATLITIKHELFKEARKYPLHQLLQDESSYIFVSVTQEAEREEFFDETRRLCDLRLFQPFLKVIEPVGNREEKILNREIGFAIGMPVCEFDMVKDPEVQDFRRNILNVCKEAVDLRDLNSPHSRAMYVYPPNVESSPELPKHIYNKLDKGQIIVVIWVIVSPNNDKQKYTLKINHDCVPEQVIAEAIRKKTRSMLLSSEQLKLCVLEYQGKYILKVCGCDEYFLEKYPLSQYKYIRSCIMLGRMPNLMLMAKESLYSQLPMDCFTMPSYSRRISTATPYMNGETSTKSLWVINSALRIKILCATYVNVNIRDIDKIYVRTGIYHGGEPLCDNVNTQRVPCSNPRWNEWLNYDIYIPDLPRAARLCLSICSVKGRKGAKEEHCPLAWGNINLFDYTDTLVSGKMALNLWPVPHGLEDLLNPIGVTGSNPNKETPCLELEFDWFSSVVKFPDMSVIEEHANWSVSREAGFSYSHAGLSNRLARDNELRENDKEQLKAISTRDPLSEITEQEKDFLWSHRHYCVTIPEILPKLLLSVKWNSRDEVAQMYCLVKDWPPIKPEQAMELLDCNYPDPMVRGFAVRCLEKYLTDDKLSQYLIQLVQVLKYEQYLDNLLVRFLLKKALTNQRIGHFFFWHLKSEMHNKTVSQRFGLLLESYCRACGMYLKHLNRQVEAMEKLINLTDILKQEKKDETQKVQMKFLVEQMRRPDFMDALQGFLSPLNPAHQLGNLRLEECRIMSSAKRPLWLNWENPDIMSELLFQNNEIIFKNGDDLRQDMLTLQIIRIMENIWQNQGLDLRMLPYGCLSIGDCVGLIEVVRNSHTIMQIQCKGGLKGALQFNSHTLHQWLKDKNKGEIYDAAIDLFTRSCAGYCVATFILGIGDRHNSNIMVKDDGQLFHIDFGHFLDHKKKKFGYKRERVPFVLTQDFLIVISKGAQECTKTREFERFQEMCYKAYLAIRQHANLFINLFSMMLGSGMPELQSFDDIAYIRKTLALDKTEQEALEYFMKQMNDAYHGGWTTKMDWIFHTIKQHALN

| Compound | Activity [1] [%] | Activity [2] [%] | Activity [3] [%] | Activity [4] [%] | Activity [5] [%] | Activity [6] [%] | Activity [7] [%] | Activity [8] [%] | Activity [9] [%] | Activity [10] [%] | Activity [11] [%] | Activity [12] [%] |
| --- | --- | --- | --- | --- | --- | --- | --- | --- | --- | --- | --- | --- |
| COc1cc2nc(C)nc(N[C@H](C)c3cccc(-c4cn[nH]c4)c3)c2cc1OC | 74 | 65 | 63 | 60 | 100 | 76 | 89 | 85 | 50 | 74 | 92 | 96 |
| COc1cc2ncnc(N[C@H](C)c3cccc4ccccc34)c2cc1OC | 11 | 97 | 89 | 92 | 100 | 1.2 | 96 | 95 | 96 | 98 | 97 | 100 |
